Test results as given in patent publication US11977028B2, “Mechanical-bond-induced exciplex fluorescence” (Northwestern University, priority 2020, dated 2024).
“And” between values parts separate entries of the source, which are not always exact repeats. Identical values can stand only once.

Legend:
[1] = Absorption and photoluminescence spectroscopy in solution; format: physicochemical
Excerpt: The close proximity of the anthracene units in the mechanically interlocked cyclophanes was expected to give rise to remarkable optical properties distinct from those of the free cyclophanes. We explored the absorption and fluorescence properties of all compounds at high dilution (4×10^−7 M) to avoid reabsorption processes^40 and aggregation effects.^17 All of the optical parameters are summarized in Tables 1 and 2. Initially, we explored the influence of the pyridine/pyridinium units on the optical properties of both ^2,6AnBox^4+ and ^9,10AnBox^4+ cyclophanes. The presence of two pyridinium units within the linker dramatically affect the optical properties of the anthracene moiety. Although ^2,6AnBPY (FIG. 5C) and ^9,10AnBPY display^41 characteristic vibronic peaks associated with the anthracene moiety at 290 and 400 nm, ^2,6AnDB^2+ and ^9,10AnDB^2+ display a shift of the band at 290 to 330 nm (FIG. 5A) and the emergence of a new featureless broad band at 450 nm associated with CT from the anthracene moiety to the pyridinium unit. It is noteworthy that phenylene-bridged bipyridyl linkers (ExBIPY) display^35 a single absorption peak at 325 nm in MeCN, while the anthracene moiety leads to the emergence of some push-pull D-A character.
All reagents were purchased from commercial suppliers (Aldrich or Fisher) and used without further purification. Anthracene derivatives, 9,10-bis(4-pyridyl)anthracene (^9.^10AnBPY) and 2,6-bis(4-pyridyl)anthracene (^2,6AnBPY) were synthesized following^1,2 reports in the literature. All reactions and manipulations were carried out under a dry N2 atmosphere using standard Schlenk. Thin-layer chromatography (TLC) was performed on silica gel 60 F254 TLC plates (Merck). Column chromatography was carried out using CombiFlash® Automation Systems (Teledyne ISCO) employing both normal phase (RediSep Rf Gold® Normal-Phase Silica) and reverse phase (RediSep Rf Gold® Reversed-phase C18). […] All the spectra were baseline-corrected with a MeCN blank sample. The photoluminescence spectra of all samples were obtained with a Fluorolog-3 spectrafluorometer (Horiba Jobin Yvon) in a 2-mm quartz cuvette with 3-nm slit width and a front-phase geometry. The time-correlated single photon counting setup is described elsewhere.^3 Nuclear magnetic resonance (NMR) spectra were recorded on a Bruker Avance III 500 and 600 MHz spectrometers, with working frequencies of 500 and 600 MHz (′H NMR) and 125 MHz (^13C NMR), respectively. Chemical shifts are reported in ppm relative to the signals corresponding to the residual non-deuterated solvents (CD3CN: δ1−1=1.94 ppm and δC=1.32 ppm). High-resolution mass spectra (HRMS) were measured on an Agilent 6210 Time of Flight (TOF) LC-MS, using an ESI source, coupled with Agilent 1100 HPLC stack, using direct infusion (0.6 mL min ^−1). The binding constants were determined using this link: website http://supramolecular.org.^4

[2] = test system: MIA PaCa-2 prostate cancer cells; experiment: Live-cell confocal microscopy imaging; format: cell-based; settings: 20×10^−6 M, 6 hours treatment, excitation 458 nm
Method: (§1) Cells were grown in standard DMEM (supplemented with 10% Fetal Bovine Serum and 1% Penicillin-Streptomycin, supplier=Corning). Cells were seeded into imaging coverglass chamber 40 hours prior to treatment. Compounds were resuspended in deionized H2O then diluted to the final concentration in media. Cells were treated with compounds for 6 hours prior to imaging.
(§2) All imaging was done on a Leica SP5 laser scanning confocal with LAS AF software in the Biological Imaging Facility at Northwestern University (Evanston, IL). A single excitation wavelength (458 nm) was used at a power of 5 uW. For the emission collection, two Leica spectral Hybrid (HyD) detectors were used; one was set to collect a wavelength range of 500-575 nm (with a gain of 200%) and the second was set to collect a wavelength range of 580-635 nm (with a gain of 103%). Images were processed with FIJI/ImageJ (NIH) and settings were kept consistent throughout the series of images.

MIA PaCa-2 cancer cells = experiment: Live-cell confocal microscopy imaging; format: cell-based; settings: concentrations lower than 10×10^−6 M
Method: as §1, §2

c1cc2ccc1C[n+]1ccc(cc1)-c1ccc3cc4cc(ccc4cc3c1)-c1cc[n+](cc1)Cc1ccc(cc1)C[n+]1ccc(cc1)-c1ccc3cc4cc(ccc4cc3c1)-c1cc[n+](cc1)C2 [^2,6AnBox^4+]
Φ (PL quantum yield) ([1]; 4 × 10^−7 M, MeCN): 3.6% | λabs ([1]; 4 × 10^−7 M, MeCN): 458 nm | λem ([1]; 4 × 10^−7 M, MeCN): 548 nm and 562 nm | τ (emission lifetime) ([1]; 4 × 10^−7 M, MeCN, 405 nm excitation): 3 ns | λem ([1]; 4 × 10^−7 M, MeCN, listed as cyclophane): 562 nm | Stokes shifts (δ) ([1]; DMF, 4 × 10^−7 M): 3153 cm⁻¹ | λabs ([1]; DMF, 4 × 10^−7 M): 472 nm | λem ([1]; DMF, 4 × 10^−7 M): 549 nm | λexc ([1]; DMF, 4 × 10^−7 M): 468 nm | Stokes shifts (δ) ([1]; EtOH, 4 × 10^−7 M): 3574 cm⁻¹ | λabs ([1]; EtOH, 4 × 10^−7 M): 468 nm | λem ([1]; EtOH, 4 × 10^−7 M): 562 nm | λexc ([1]; EtOH, 4 × 10^−7 M): 468 nm | Stokes shifts (δ) ([1]; H2O, 4 × 10^−7 M): 3284 cm⁻¹ | λabs ([1]; H2O, 4 × 10^−7 M): 458 nm | λem ([1]; H2O, 4 × 10^−7 M): 553 nm | λexc ([1]; H2O, 4 × 10^−7 M): 468 nm | Stokes shifts (δ) ([1]; Me2SO, 4 × 10^−7 M): 3915 cm⁻¹ | λabs ([1]; Me2SO, 4 × 10^−7 M): 460 nm | λem ([1]; Me2SO, 4 × 10^−7 M): 570 nm | λexc ([1]; Me2SO, 4 × 10^−7 M): 466 nm | charge transfer (CT) absorption band ([1]; MeCN): 458 nm | Stokes shifts (δ) ([1]; MeCN, 4 × 10^−7 M (Table 2)): 3946 cm⁻¹ | λabs ([1]; MeCN, 4 × 10^−7 M (Table 2)): 458 nm | λem ([1]; MeCN, 4 × 10^−7 M (Table 2)): 562 nm | λexc ([1]; MeCN, 4 × 10^−7 M (Table 2)): 460 nm | charge transfer (CT) absorption band ([1]; MeCN, listed as cyclophane): 455 nm | Stokes shifts (δ) ([1]; MeOH, 4 × 10^−7 M): 3854 cm⁻¹ | λabs ([1]; MeOH, 4 × 10^−7 M): 460 nm | λem ([1]; MeOH, 4 × 10^−7 M): 568 nm | λexc ([1]; MeOH, 4 × 10^−7 M): 466 nm | concentration dependence of excimer/exciplex emission ([1]; from high concentration to high dilution (10^−8 M)): absence of excimer emission at high concentration | emission in the green channel (500-575 nm) in live cells [2]: an emission in the green channel | emission in the red channel (580-635 nm) in live cells [2]: very weak emission in the red channel | emission detected in live cells (MIA PaCa-2 cancer cells): No emissions
